Assay results taken from PubChem BioAssay (NCI).
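Assay format: 96-well plates, 48-hour exposure. TGI: total growth inhibition.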

Legend:
Assay in all cases: NCI-60 cell line screen, 48 h
MOLT-4 leukemia = test system: MOLT-4 leukemia
A549 NSCLC = test system: A549 NSCLC
CCRF-CEM leukemia = test system: CCRF-CEM leukemia
SN12C renal = test system: SN12C renal
SF-539 CNS = test system: SF-539 CNS
NCI-H522 lung = test system: NCI-H522 lung
HT29 colon = test system: HT29 colon
HCC-2998 colon = test system: HCC-2998 colon
T-47D breast = test system: T-47D breast
BT-549 breast = test system: BT-549 breast
SK-MEL-5 melanoma = test system: SK-MEL-5 melanoma
NCI/ADR-RES ovarian = test system: NCI/ADR-RES ovarian
LOX IMVI melanoma = test system: LOX IMVI melanoma
HS 578T breast = test system: HS 578T breast
TK-10 renal = test system: TK-10 renal
KM12 colon = test system: KM12 colon
PC-3 prostate = test system: PC-3 prostate
NCI-H460 lung = test system: NCI-H460 lung
RXF 393 renal = test system: RXF 393 renal
UACC-62 melanoma = test system: UACC-62 melanoma
SK-MEL-28 melanoma = test system: SK-MEL-28 melanoma
MALME-3M melanoma = test system: MALME-3M melanoma
786-0 renal = test system: 786-0 renal
HCT-15 colon = test system: HCT-15 colon
MCF7 breast = test system: MCF7 breast
HOP-92 NSCLC = test system: HOP-92 NSCLC
MDA-MB-435 = test system: MDA-MB-435
OVCAR-3 ovarian = test system: OVCAR-3 ovarian
DU-145 prostate = test system: DU-145 prostate
K-562 leukemia = test system: K-562 leukemia
RPMI-8226 leukemia = test system: RPMI-8226 leukemia
COLO 205 colon = test system: COLO 205 colon
SF-295 CNS = test system: SF-295 CNS
HL-60(TB) leukemia = test system: HL-60(TB) leukemia
CAKI-1 renal = test system: CAKI-1 renal
MDA-N = test system: MDA-N
U251 CNS = test system: U251 CNS
ACHN renal = test system: ACHN renal
MDA-MB-231 breast = test system: MDA-MB-231 breast
UACC-257 melanoma = test system: UACC-257 melanoma
M14 melanoma = test system: M14 melanoma
IGROV1 ovarian = test system: IGROV1 ovarian
OVCAR-4 ovarian = test system: OVCAR-4 ovarian
OVCAR-8 ovarian = test system: OVCAR-8 ovarian
NCI-H226 lung = test system: NCI-H226 lung
SNB-75 CNS = test system: SNB-75 CNS
SNB-19 CNS = test system: SNB-19 CNS
NCI-H23 lung = test system: NCI-H23 lung
EKVX NSCLC = test system: EKVX NSCLC
UO-31 renal = test system: UO-31 renal
SK-OV-3 ovarian = test system: SK-OV-3 ovarian
SK-MEL-2 melanoma = test system: SK-MEL-2 melanoma
HCT-116 colon = test system: HCT-116 colon
SW-620 colon = test system: SW-620 colon
SF-268 CNS = test system: SF-268 CNS
HOP-62 NSCLC = test system: HOP-62 NSCLC

Measured: TGI

CC1/C(=N/O)CC(c2ccccc2)N(N=O)C1c1ccccc1 (stereo unspecified)
> 100 µM: all assays above

Cc1c(C2CCSc3ccccc3N2)sc2ccccc12 (stereo unspecified)
not listed: CCRF-CEM leukemia
> 100 µM: all other assays above
